Test results from US20220370453A1 (Storm Therapeutics Ltd, priority 2019, published 2022).

Assays:
BCDIN3D [1] = target: T1, BCDIN3D (Homo sapiens, UniProt Q7Z5W3); experiment: BCDIN3D IC50 RFMS (RapidFire) assay with mini-helix; format: biochemical; conditions: mini-helix substrate 0.2 μM, SAM 6 μM, 25 nM enzyme
T1 sequence (Q7Z5W3 1-292): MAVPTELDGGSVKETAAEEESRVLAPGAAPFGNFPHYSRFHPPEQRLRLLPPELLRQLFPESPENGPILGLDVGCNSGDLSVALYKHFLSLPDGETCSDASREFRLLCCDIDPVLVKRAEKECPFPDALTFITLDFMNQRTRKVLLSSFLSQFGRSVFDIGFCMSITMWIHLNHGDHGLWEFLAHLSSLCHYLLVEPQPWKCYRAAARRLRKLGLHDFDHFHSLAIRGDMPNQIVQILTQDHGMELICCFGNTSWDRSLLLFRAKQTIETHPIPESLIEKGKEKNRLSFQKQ
How it was run: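 25 nM enzyme preincubated 10 min at room temperature with compound (1% DMSO) in 25 mM Tris pH 8.0, 10 mM DTT, 1 mM EDTA, 0.03% BSA. Reaction started with 0.2 μM mini-helix plus 6 μM SAM, run 1 h at 37 °C, quenched with TCA; SAH product quantified by RapidFire MS against isotopic SAH standards.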

BCDIN3D [2] = target: T1, BCDIN3D; experiment: BCDIN3D InCellPulse thermal stability assay in transfected A549 cells; format: cell-based; conditions: transiently transfected A549 cells, heat shock 58° C. 15 min
How it was run: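 A549 cells transiently expressing BCDIN3D N-terminally fused to ePL ProLabel tag, 1500 cells/well, pre-incubated 1 h at 37 °C with compound (0.6% DMSO). Heat shock 58 °C for 15 min; remaining soluble fusion detected by split β-galactosidase complementation luminescence.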

SMILES | IC50 (BCDIN3D [1]) [nM] | IC50 (BCDIN3D [2]) [nM]
Cn1ncc2c(NC3CC(F)C3)nc(NC[C@H](N)c3ccccc3)nc21 (stereo partly drawn) [Compound 4.88, N6-[(2R)-2-amino-2-phenyl-ethyl]-N4-(3-fluorocyclobutyl)-1-methyl-pyrazolo[3,4-d]pyrimidine-4,6-diamine] | 112 | 148
Cn1ncc2c(N[C@H]3C[C@@H](F)C3)nc(NC[C@H](N)c3ccccc3)nc21 [Compound 4.90, N6-[(2R)-2-amino-2-phenyl-ethyl]-N4-(3-fluorocyclobutyl)-1-methyl-pyrazolo[3,4-d]pyrimidine-4,6-diamine] | 576 | 989
Cn1ncc2c(NC3CC(C#N)C3)nc(NC[C@H](N)c3ccccc3)nc21 (stereo partly drawn) [Compound 4.91, 3-[[6-[[(2R)-2-amino-2-phenyl-ethyl]amino]-1-methyl-pyrazolo[3,4-d]pyrimidin-4-yl]amino]cyclobutanecarbonitrile] | 129 | 263
COC1CC(Nc2nc(NC[C@H](N)c3ccccc3)nc3c2cnn3C)C1 (stereo partly drawn) [Compound 4.92, N6-[(2R)-2-amino-2-phenyl-ethyl]-N4-(3-methoxycyclobutyl)-1-methyl-pyrazolo[3,4-d]pyrimidine-4,6-diamine] | 343 | 461
Cn1ncc2c(NC3CC4(COC4)C3)nc(NC[C@H](N)c3ccccc3)nc21 [Compound 4.95, N6-[(2R)-2-amino-2-phenyl-ethyl]-1-methyl-N4-(2-oxaspiro[3.3]heptan-6-yl)pyrazolo[3,4-d]pyrimidine-4,6-diamine] | 374 | 456
C[C@H](Nc1nc(NC[C@H](N)c2ccccc2)nc2c1cnn2C)C(F)(F)F [Compound 4.98, N6-[(2R)-2-amino-2-phenyl-ethyl]-1-methyl-N4-[(1S)-2,2,2-trifluoro-1-methyl-ethyl]pyrazolo[3,4-d]pyrimidine-4,6-diamine] | 136 | 232
COCC(C)(C)Nc1nc(NC[C@H](N)c2ccccc2)nc2c1cnn2C [Compound 4.100, N6-[(2R)-2-amino-2-phenyl-ethyl]-N4-(2-methoxy-1,1-dimethyl-ethyl)-1-methyl-pyrazolo[3,4-d]pyrimidine-4,6-diamine] | 1330 | 1860
CCC(C)(C)Nc1nc(NC[C@H](N)c2ccccc2)nc2c1cnn2C [Compound 4.101, N6-[(2R)-2-amino-2-phenyl-ethyl]-N4-(1,1-dimethylpropyl)-1-methyl-pyrazolo[3,4-d]pyrimidine-4,6-diamine] | 463 | 330
C[C@H](Nc1nc(NC[C@H](N)c2ccccc2)nc2c1cnn2C)C1CC1 [Compound 4.102, N6-[(2R)-2-amino-2-phenyl-ethyl]-N4-[(1S)-1-cyclopropylethyl]-1-methyl-pyrazolo[3,4-d]pyrimidine-4,6-diamine] | 4380 | 2630
CC(C)CNc1nc(NC[C@H](N)c2ccccc2)nc2c1cnn2C [Compound 4.103, N6-[(2R)-2-amino-2-phenyl-ethyl]-N4-isobutyl-1-methyl-pyrazolo[3,4-d]pyrimidine-4,6-diamine] | 321 | 480
Cn1ncc2c(NCC3CCC3(F)F)nc(NC[C@H](N)c3ccccc3)nc21 (stereo partly drawn) [Compound 4.106, N6-[(2R)-2-amino-2-phenyl-ethyl]-N4-[(2,2-difluorocyclobutyl)methyl]-1-methyl-pyrazolo[3,4-d]pyrimidine-4,6-diamine] | 149 | 437
Cn1ncc2c(NCC3(F)CCC3)nc(NC[C@H](N)c3ccccc3)nc21 [Compound 4.107, N6-[(2R)-2-amino-2-phenyl-ethyl]-N4-[(1-fluorocyclobutyl)methyl]-1-methyl-pyrazolo[3,4-d]pyrimidine-4,6-diamine] | 280 | 618
Cn1ncc2c(NCC3CC(F)C3)nc(NC[C@H](N)c3ccccc3)nc21 (stereo partly drawn) [Compound 4.108, N6-[(2R)-2-amino-2-phenyl-ethyl]-N4-[(3-fluorocyclobutyl)methyl]-1-methyl-pyrazolo[3,4-d]pyrimidine-4,6-diamine] | 288 | 611
Cn1ncc2c(NCC(C)(C)F)nc(NC[C@H](N)c3ccccc3)nc21 [Compound 4.110, N6-[(2R)-2-amino-2-phenyl-ethyl]-N4-(2-fluoro-2-methyl-propyl)-1-methyl-pyrazolo[3,4-d]pyrimidine-4,6-diamine] | 553 | 672
Cn1ncc2c(NC3(C)CCCCC3)nc(NC[C@H](N)c3ccccc3)nc21 [Compound 4.111, N6-[(2R)-2-amino-2-phenyl-ethyl]-1-methyl-N4-(1-methylcyclohexyl)pyrazolo[3,4-d]pyrimidine-4,6-diamine] | 369 | 292
Cn1ncc2c(NCC3CCC3F)nc(NC[C@H](N)c3ccccc3)nc21 (stereo partly drawn) [Compound 4.112, N6-[(2R)-2-amino-2-phenyl-ethyl]-N4-[(2-fluorocyclobutyl)methyl]-1-methyl-pyrazolo[3,4-d]pyrimidine-4,6-diamine] | 164 | 439
Cn1ncc2c(NCCC(F)(F)F)nc(NC[C@H](N)c3ccccc3)nc21 [Compound 4.114, N6-[(2R)-2-amino-2-phenyl-ethyl]-1-methyl-N4-(3,3,3-trifluoropropyl)pyrazolo[3,4-d]pyrimidine-4,6-diamine] | 540 | 1560
Cn1ncc2c(NC3(C)CCCC3)nc(NC[C@H](N)c3ccccc3)nc21 [Compound 4.116, N6-[(2R)-2-amino-2-phenyl-ethyl]-1-methyl-N4-(1-methylcyclopentyl)pyrazolo[3,4-d]pyrimidine-4,6-diamine] | 151 | 123

Next, values leading:

IC50 (BCDIN3D [1]) [nM] | IC50 (BCDIN3D [2]) [nM] | SMILES
109 | 223 | Cn1ncc2c(N[C@H]3C[C@H](F)C3)nc(NC[C@H](N)c3ccccc3)nc21 [Compound 4.89, N6-[(2R)-2-amino-2-phenyl-ethyl]-N4-(3-fluorocyclobutyl)-1-methyl-pyrazolo[3,4-d]pyrimidine-4,6-diamine]
25.8 | 72 | Cn1ncc2c(NC3CC(Cl)(Cl)C3)nc(NC[C@H](N)c3ccccc3)nc21 [Compound 4.93, N6-[(2R)-2-amino-2-phenyl-ethyl]-N4-(3,3-dichlorocyclobutyl)-1-methyl-pyrazolo[3,4-d]pyrimidine-4,6-diamine]
6.1 | 47 | Cn1ncc2c(NC3CC4(C3)CC(F)(F)C4)nc(NC[C@H](N)c3ccccc3)nc21 [Compound 4.94, N6-[(2R)-2-amino-2-phenyl-ethyl]-N4-(2,2-difluorospiro[3.3]heptan-6-yl)-1-methyl-pyrazolo[3,4-d]pyrimidine-4,6-diamine]
14 | 21.8 | Cn1ncc2c(NC3CC(C)(C)C3)nc(NC[C@H](N)c3ccccc3)nc21 [Compound 4.96, N6-[(2R)-2-amino-2-phenyl-ethyl]-N4-(3,3-dimethylcyclobutyl)-1-methyl-pyrazolo[3,4-d]pyrimidine-4,6-diamine]
84.3 | 176 | Cn1ncc2c(NC3CC(C)(F)C3)nc(NC[C@H](N)c3ccccc3)nc21 (stereo partly drawn) [Compound 4.97, N6-[(2R)-2-amino-2-phenyl-ethyl]-N4-(3-fluoro-3-methyl-cyclobutyl)-1-methyl-pyrazolo[3,4-d]pyrimidine-4,6-diamine]
8 | 17 | Cn1ncc2c(NC3CC4(CCC4)C3)nc(NC[C@H](N)c3ccccc3)nc21 [Compound 4.99, N6-[(2R)-2-amino-2-phenyl-ethyl]-1-methyl-N4-spiro[3.3]heptan-2-yl-pyrazolo[3,4-d]pyrimidine-4,6-diamine]
28 | 56 | Cn1ncc2c(NCC3CC34CCC4)nc(NC[C@H](N)c3ccccc3)nc21 (stereo partly drawn) [Compound 4.104, N6-[(2R)-2-amino-2-phenyl-ethyl]-1-methyl-N4-(spiro[2.3]hexan-2-ylmethyl)pyrazolo[3,4-d]pyrimidine-4,6-diamine]
74 | 144 | Cn1ncc2c(NCC3CCC3)nc(NC[C@H](N)c3ccccc3)nc21 [Compound 4.105, N6-[(2R)-2-amino-2-phenyl-ethyl]-N4-(cyclobutylmethyl)-1-methyl-pyrazolo[3,4-d]pyrimidine-4,6-diamine]
17 | 34 | Cn1ncc2c(NC3CC(C(F)(F)F)C3)nc(NC[C@H](N)c3ccccc3)nc21 (stereo partly drawn) [Compound 4.109, N6-[(2R)-2-amino-2-phenyl-ethyl]-1-methyl-N4-[3-(trifluoromethyl)cyclobutyl]pyrazolo[3,4-d]pyrimidine-4,6-diamine]
62 | 148 | Cn1ncc2c(NC3CCCC3)nc(NC[C@H](N)c3ccccc3)nc21 [Compound 4.113, N6-[(2R)-2-amino-2-phenyl-ethyl]-N4-cyclopentyl-1-methyl-pyrazolo[3,4-d]pyrimidine-4,6-diamine]
39 | 271 | Cn1ncc2c(NCC3CC3(Cl)Cl)nc(NC[C@H](N)c3ccccc3)nc21 (stereo partly drawn) [Compound 4.115, N6-[(2R)-2-amino-2-phenyl-ethyl]-N4-[(2,2-dichlorocyclopropyl)methyl]-1-methyl-pyrazolo[3,4-d]pyrimidine-4,6-diamine]
